Legend:
[1] = DPPH free radical scavenging; settings: % scavenging of DPPH at 1 μg μL^−1 concentration
[2] = target: human BChE (Homo sapiens, UniProt P06276); experiment: Enzyme inhibition assay; format: biochemical
[3] = target: human AChE (Homo sapiens, UniProt P22303); experiment: Enzyme inhibition assay; format: biochemical
Chain of human AChE (P22303 32-614): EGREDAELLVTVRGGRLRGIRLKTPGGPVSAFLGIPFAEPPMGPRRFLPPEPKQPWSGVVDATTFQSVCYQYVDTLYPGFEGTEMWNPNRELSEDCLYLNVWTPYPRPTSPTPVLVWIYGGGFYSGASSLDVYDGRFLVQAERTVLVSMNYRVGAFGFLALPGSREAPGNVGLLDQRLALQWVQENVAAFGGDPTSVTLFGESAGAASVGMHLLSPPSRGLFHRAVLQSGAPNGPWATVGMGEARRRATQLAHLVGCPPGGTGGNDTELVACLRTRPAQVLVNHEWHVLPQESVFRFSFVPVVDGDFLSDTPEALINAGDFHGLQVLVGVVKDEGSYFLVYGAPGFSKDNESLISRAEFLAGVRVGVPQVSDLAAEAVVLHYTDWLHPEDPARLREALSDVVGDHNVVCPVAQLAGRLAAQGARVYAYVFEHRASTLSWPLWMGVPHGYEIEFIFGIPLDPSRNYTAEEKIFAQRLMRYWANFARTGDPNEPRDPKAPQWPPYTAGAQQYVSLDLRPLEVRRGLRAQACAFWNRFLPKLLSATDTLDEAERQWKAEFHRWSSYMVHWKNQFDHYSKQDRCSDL

Chain of human BChE (P06276 29-602): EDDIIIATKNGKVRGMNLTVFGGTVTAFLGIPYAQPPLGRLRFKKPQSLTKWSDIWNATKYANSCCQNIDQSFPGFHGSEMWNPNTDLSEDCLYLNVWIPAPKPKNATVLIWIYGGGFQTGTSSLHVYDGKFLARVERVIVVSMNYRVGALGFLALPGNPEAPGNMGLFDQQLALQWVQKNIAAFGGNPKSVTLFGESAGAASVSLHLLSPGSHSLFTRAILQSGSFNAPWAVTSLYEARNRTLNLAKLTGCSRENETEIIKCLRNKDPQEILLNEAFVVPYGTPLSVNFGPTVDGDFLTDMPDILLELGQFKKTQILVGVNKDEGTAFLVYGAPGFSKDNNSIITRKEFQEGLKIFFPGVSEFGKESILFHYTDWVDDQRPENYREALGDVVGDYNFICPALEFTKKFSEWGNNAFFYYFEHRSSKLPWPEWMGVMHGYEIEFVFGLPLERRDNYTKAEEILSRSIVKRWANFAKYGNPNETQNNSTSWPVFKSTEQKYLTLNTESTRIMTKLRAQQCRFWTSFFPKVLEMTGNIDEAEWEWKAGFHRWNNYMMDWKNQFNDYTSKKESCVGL

SMILES | Scavenging (%) [1] [%] | IC50 [2] [µM] | IC50 [3] [µM] | Scavenging (%) ([1]; listed as 4)
O=C1O[C@H]([C@@H](O)CO)C(O)=C1O [Ascorbic acid, ascorbic acid, reference compound] | 96.39 | – | – | –
COC(=O)c1ccccc1NC(=O)c1ccccc1 [Compound 03, methyl-2-benzamidobenzoate] | 37.17 | 0.21 ± 0.06 | 0.25 ± 0.06 | –
NNC(=O)c1ccccc1NC(=O)c1ccccc1 [Compound 04, N-(2-(hydrazinecarbonyl)phenyl)benzamide] | 95.06 | 0.17 ± 0.12 | 27.65 ± 0.14 | 95.07
O=C(Nc1ccccc1C(=O)N/N=C/c1ccc(Cl)cc1)c1ccccc1 [Compound 05, (E)-N-(2-(2-(4-Chlorobenzylidene)hydrazinecarbonyl)phenyl) benzamide] | 35.37 | 1.24 ± 0.12 | 1.03 ± 0.12 | –
O=C(Nc1ccccc1C(=O)N/N=C/c1ccc(Br)cc1)c1ccccc1 [Compound 06, (E)-N-(2-(2-(4-Bromobenzylidene)hydrazinecarbonyl)phenyl)benzamide] | 15.88 | 0.14 ± 0.05 | 0.09 ± 0.05 | –
CN(C)c1ccc(/C=N/NC(=O)c2ccccc2NC(=O)c2ccccc2)cc1 [Compound 07, (E)-N-(2-(2-(4-(Dimethylamino)benzylidene)hydrazinecarbonyl)phenyl)benzamide] | 43.97 | – | 25.2 ± 0.21 | –
O=C(Nc1ccccc1C(=O)N/N=C/c1ccc([N+](=O)[O-])cc1)c1ccccc1 [Compound 08, (E)-N-(2-(2-(4-Nitrobenzylidene)hydrazinecarbonyl)phenyl)benzamide] | 20.20 | 0.19 ± 0.12 | 14.8 ± 0.29 | –
CC(C)c1ccc(/C=N/NC(=O)c2ccccc2NC(=O)c2ccccc2)cc1 [Compound 09, (E)-N-(2-(2-(4-Isopropylbenzylidene)hydrazinecarbonyl)phenyl)benzamide] | 33.73 | – | 23.1 ± 0.25 | –
O=C(Nc1ccccc1C(=O)N/N=C/c1ccc(O)cc1O)c1ccccc1 [Compound 10, (E)-N-(2-(2-(2,4-Dihydroxybenzylidene)hydrazinecarbonyl)phenyl)benzamide] | 82.55 | 2.15 ± 0.26 | 18.5 ± 0.19 | –
O=C(Nc1ccccc1C(=O)N/N=C/c1ccccc1O)c1ccccc1 [Compound 11, (E)-N-(2-(2-(2-Hydroxybenzylidene)hydrazinecarbonyl)phenyl)benzamide] | 67.54 | 0.12 ± 0.09 | 1.14 ± 0.35 | –
COc1ccc(/C=N/NC(=O)c2ccccc2NC(=O)c2ccccc2)cc1 [Compound 12, (E)-N-(2-(2-(4-Methoxybenzylidene)hydrazinecarbonyl)phenyl)benzamide] | 30.09 | 18.34 ± 0.14 | 20.4 ± 0.23 | –
O=C(Nc1ccccc1C(=O)N/N=C/c1ccccc1)c1ccccc1 [Compound 13, (E)-N-(2-(2-Benzylidenehydrazinecarbonyl)phenyl)benzamide] | 30.21 | 0.1 ± 0.06 | 0.11 ± 0.03 | –
